Some test systems named below: DU-145; EKVX; HL-60; HOP-62; IGROV-1; KM12; LOX IMVI; MDA-MB-435; MDA-N; NCI-H226; NCI-H522; OVCAR-3; OVCAR-8; PC-3; SF-539; SK-MEL-5; SK-OV-3; SN12C; SNB-19; TK-10.
Experiment in all cases: NCI tumour cell line growth inhibition, 48 h

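96-well plates; 48 h exposure; 5 concentrations. Endpoints by linear interpolation between flanking doses. Not reached: highest tested concentration assigned. The concentration for 50% growth inhibition is given as GI50.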 The source made the active and inactive calls. No stated cut-off is given here; in the data, active = GI50 up to about 1.1 µM and inactive = higher.

For `CCOC(=O)c1cn(CC)c2ccc3c(c2c1=O)S(=O)(=O)C=C3`, the GI50 with DU-145, with EKVX, in the test on HL-60, in the test with HOP-62, in the test on IGROV-1 and in the test on KM12 was > 100 µM (inactive) in each case. Also, the GI50 in the test on LOX IMVI is > 100 µM (inactive); in the test with MDA-MB-435, > 100 µM (inactive); in the test with MDA-N, > 100 µM (inactive); in the test with NCI-H226, 63.7 µM (inactive); in the test with NCI-H522, > 100 µM (inactive); in the test on OVCAR-3, > 100 µM (inactive). The GI50 in the test with OVCAR-8, with PC-3, in the test on SF-539, in the test with SK-MEL-5, in the test with SK-OV-3 and with SN12C was > 100 µM (inactive) each time. Moreover, the GI50 with SNB-19 and in the test on TK-10 was > 100 µM (inactive) throughout.
`CCOC(=O)C1=NOC2(C=C(Br)C(=O)C(Br)=C2)C1`: the GI50 in the test with DU-145 was 6.7 µM (inactive); in the test on EKVX it was 2.22 µM (inactive); with HL-60 it was 0.28 µM (active); with HOP-62, 6.41 µM (inactive); in the test with IGROV-1, 7.36 µM (inactive); in the test with KM12, 13.4 µM (inactive). Further, the GI50 with LOX IMVI was 2.47 µM (inactive); with MDA-MB-435 it was 1.76 µM (inactive); in the test with MDA-N, 1.64 µM (inactive); in the test with NCI-H226, 25.8 µM (inactive); in the test with NCI-H522 it was 0.335 µM (active); in the test with OVCAR-3, 1.39 µM (inactive). Moreover, the GI50 is 2.04 µM (inactive) in the test on OVCAR-8; 2.29 µM (inactive) with PC-3; 4.43 µM (inactive) with SF-539; 7.67 µM (inactive) with SK-MEL-5; 8.39 µM (inactive) in the test with SK-OV-3; 2.36 µM (inactive) in the test with SN12C. The GI50 with SNB-19 was 19 µM (inactive); with TK-10 it was 0.902 µM (active).
As to `O=C(N/N=C/c1ccccc1)c1cccc2nc3ccccc3nc12`, the GI50 with DU-145 was 17.9 µM (inactive); in the test with EKVX it was > 39.3 µM (inactive); in the test with HL-60 it was > 100 µM (inactive); with HOP-62, 4.15 µM (inactive); in the test on IGROV-1, 63.5 µM (inactive); with KM12, 54 µM (inactive). The GI50 is 29.9 µM (inactive) in the test with LOX IMVI; 65 µM (inactive) in the test on MDA-MB-435; 54.2 µM (inactive) in the test on MDA-N; 38.7 µM (inactive) with NCI-H226; 44.8 µM (inactive) with NCI-H522; > 100 µM (inactive) in the test on OVCAR-3. For the same molecule, the GI50 is > 85.7 µM (inactive) in the test on OVCAR-8; > 100 µM (inactive) with PC-3; > 100 µM (inactive) in the test with SF-539; 3.19 µM (inactive) in the test with SK-MEL-5; > 88.3 µM (inactive) in the test with SK-OV-3; > 87.9 µM (inactive) in the test with SN12C. Moreover, the GI50 in the test on SNB-19 is > 73.1 µM (inactive); in the test on TK-10 it was > 100 µM (inactive).
With `COc1cc(Nc2nc3ccccc3nc2C(=O)O)cc(OC)c1OC`, the GI50 is > 100 µM (inactive) with DU-145; 30.1 µM (inactive) with EKVX; > 100 µM (inactive) in the test on HL-60; 22.8 µM (inactive) in the test on HOP-62; 78.3 µM (inactive) in the test with IGROV-1; > 100 µM (inactive) in the test on KM12. In addition, the GI50 in the test with LOX IMVI was 53 µM (inactive); in the test on MDA-MB-435 it was > 100 µM (inactive); in the test with MDA-N, > 100 µM (inactive); in the test on NCI-H226, > 100 µM (inactive); with NCI-H522, 46 µM (inactive); with OVCAR-3, 45.8 µM (inactive). For the same molecule, the GI50 in the test on OVCAR-8 is > 100 µM (inactive); with PC-3 it was > 100 µM (inactive); in the test with SF-539 it was > 100 µM (inactive); in the test on SK-MEL-5, 49.2 µM (inactive); in the test on SK-OV-3, 59.2 µM (inactive); in the test with SN12C, 74.1 µM (inactive). In addition, the GI50 with SNB-19 is 70.6 µM (inactive); in the test on TK-10, 16.3 µM (inactive).
As for `C/C(=N/NC(=S)Nc1cccc(Cl)c1)c1ccccn1`, the GI50 in the test with DU-145 was 0.532 µM (active); in the test on EKVX, 0.0977 µM (active); in the test on HL-60, < 0.0141 µM (active); in the test on HOP-62 it was 0.453 µM (active); in the test on IGROV-1, 0.0395 µM (active); in the test with KM12 it was 0.413 µM (active). Moreover, the GI50 in the test with LOX IMVI is 0.125 µM (active); with MDA-MB-435, 1.31 µM (inactive); with MDA-N it was 0.776 µM (active); in the test on NCI-H226, 0.213 µM (active); with NCI-H522, 0.06 µM (active); in the test on OVCAR-3 it was 0.0365 µM (active). Besides, the GI50 with OVCAR-8 was 0.0834 µM (active); with PC-3, 0.0255 µM (active); in the test on SF-539 it was 0.593 µM (active); in the test with SK-MEL-5 it was 0.37 µM (active); with SK-OV-3 it was 0.265 µM (active); in the test on SN12C, 0.255 µM (active). Further, the GI50 with SNB-19 is 2.5 µM (inactive); in the test with TK-10, 0.322 µM (active).
